Experimental data reported in the supplement of paper PMC10627819.

Experiments:
B. subtilis 168 [1] = experiment: fitness (endpoint OD595 vs no drug) (fraction); higher = more growth
Summary of the method: (§1)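 At 37 °C, bacteria in TSB, LB Lennox or CY were grown in 384-well plates from a starting OD595 of 0.01. OD595 was measured every 30 min for 14 h, with the first reading used as background. Fitness is the optical density at the switch to stationary phase as a fraction of the robust mean of no-drug control wells, capped at 1.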

S. pneumoniae D39V [2] = experiment: as above
Summary of the method: as §1

S. aureus DSM 20231 [3] = experiment: as above
Summary of the method: as §1

B. subtilis 168 [4] = experiment: Bliss interaction score (quartile over a dose matrix) (fitness difference); higher = more antagonism (negative = synergy)
Summary of the method: (§2)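 Combination data were used to infer fitness under each single drug. Fitness is the OD595 at entry into stationary phase divided by the robust mean of the plate's no-drug wells, with a cap of 1. The Bliss score is the observed minus the expected product fitness, summarised by quartiles over technical, biological and donor/recipient replicates.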

S. pneumoniae D39V [5] = experiment: as above
Summary of the method: as §2

S. aureus Newman = experiment: as above
Summary of the method: as §2

S. aureus DSM 20231 [6] = experiment: as above
Summary of the method: as §2
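Throughout, for Bliss interaction score (quartile over a dose matrix): first quartile when negative (synergy) and third quartile when positive (antagonism).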

CCC[C@@H]1C[C@@H](C(=O)N[C@@H]([C@H]2O[C@H](SC)[C@H](O)[C@@H](O)[C@H]2O)[C@@H](C)O)N(C)C1 [Lincomycin] + C[n+]1ccc(-c2cc[n+](C)cc2)cc1 [Paraquat]
Conditions	fitness
B. subtilis 168 [1], first compound 0.1 µg/mL, partner 1.25 µg/mL	0.92
B. subtilis 168 [1], first compound 0.1 µg/mL, partner 2.5 µg/mL	0.92
B. subtilis 168 [1], first compound 0.1 µg/mL, partner 5 µg/mL	0.968
B. subtilis 168 [1], first compound 0.2 µg/mL, partner 1.25 µg/mL	0.923
B. subtilis 168 [1], first compound 0.2 µg/mL, partner 2.5 µg/mL	0.855
B. subtilis 168 [1], first compound 0.2 µg/mL, partner 5 µg/mL	0.833
B. subtilis 168 [1], first compound 0.4 µg/mL, partner 1.25 µg/mL	0.878
B. subtilis 168 [1], first compound 0.4 µg/mL, partner 2.5 µg/mL	0.845
B. subtilis 168 [1], first compound 0.4 µg/mL, partner 5 µg/mL	0.814
S. aureus DSM 20231 [3], first compound 0.1 µg/mL, partner 1.25 µg/mL	0.801
S. aureus DSM 20231 [3], first compound 0.1 µg/mL, partner 2.5 µg/mL	0.802
S. aureus DSM 20231 [3], first compound 0.1 µg/mL, partner 5 µg/mL	0.838
S. aureus DSM 20231 [3], first compound 0.2 µg/mL, partner 1.25 µg/mL	0.739
S. aureus DSM 20231 [3], first compound 0.2 µg/mL, partner 2.5 µg/mL	0.719
S. aureus DSM 20231 [3], first compound 0.2 µg/mL, partner 5 µg/mL	0.692
S. aureus DSM 20231 [3], first compound 0.4 µg/mL, partner 5 µg/mL	0.28
S. pneumoniae D39V [2], first compound 0.215 µg/mL, partner 1.5 µg/mL	0.885
S. pneumoniae D39V [2], first compound 0.215 µg/mL, partner 3 µg/mL	0.863
S. pneumoniae D39V [2], first compound 0.215 µg/mL, partner 6 µg/mL	0.814
S. pneumoniae D39V [2], first compound 0.43 µg/mL, partner 1.5 µg/mL	0.774
S. pneumoniae D39V [2], first compound 0.43 µg/mL, partner 3 µg/mL	0.733
S. pneumoniae D39V [2], first compound 0.43 µg/mL, partner 6 µg/mL	0.711
S. pneumoniae D39V [2], first compound 0.86 µg/mL, partner 1.5 µg/mL	0.56
S. pneumoniae D39V [2], first compound 0.86 µg/mL, partner 3 µg/mL	0.407
S. pneumoniae D39V [2], first compound 0.86 µg/mL, partner 6 µg/mL	0.453

fitness, S. pneumoniae D39V [2], one replicate
Conditions	first compound 0.2 µg/mL	first compound 0.4 µg/mL	first compound 0.8 µg/mL
partner 1.5 µg/mL	0.83	0.758	0.675
partner 3 µg/mL	0.866	0.751	0.729
partner 6 µg/mL	0.889	0.802	0.776

Conditions	Bliss interaction score
B. subtilis 168 [4]	0.0402
S. aureus DSM 20231 [6]	-0.0564
S. aureus Newman	-0.191
S. pneumoniae D39V [5]	0.0842

CCC[C@@H]1C[C@@H](C(=O)N[C@@H]([C@H]2O[C@H](SC)[C@H](O)[C@@H](O)[C@H]2O)[C@@H](C)O)N(C)C1 [Lincomycin] + Cc1cc(NS(=O)(=O)c2ccc(N)cc2)no1 [Sulfamethoxazol]
fitness
Conditions	first compound 0.1 µg/mL	first compound 0.2 µg/mL	first compound 0.215 µg/mL	first compound 0.4 µg/mL	first compound 0.43 µg/mL	first compound 0.86 µg/mL
B. subtilis 168 [1], partner 1 µg/mL	0.831	0.862	–	0.891	–	–
B. subtilis 168 [1], partner 2 µg/mL	0.872	0.874	–	0.841	–	–
B. subtilis 168 [1], partner 4 µg/mL	0.893	0.938	–	0.895	–	–
S. aureus DSM 20231 [3], partner 1 µg/mL	0.82	0.616	–	0.343	–	–
S. aureus DSM 20231 [3], partner 2 µg/mL	0.815	0.687	–	0.37	–	–
S. aureus DSM 20231 [3], partner 4 µg/mL	0.828	0.697	–	0.304	–	–
S. pneumoniae D39V [2], partner 1 µg/mL	–	–	0.746	–	0.658	0.252
S. pneumoniae D39V [2], partner 2 µg/mL	–	–	0.762	–	0.676	0.214
S. pneumoniae D39V [2], partner 4 µg/mL	–	–	0.786	–	0.691	0.265

fitness, one replicate
Conditions	first compound 0.2 µg/mL	first compound 0.4 µg/mL	first compound 0.8 µg/mL	first compound 1.6 µg/mL
B. subtilis 168 [1], partner 0.5 µg/mL	–	0.903	0.806	0.862
B. subtilis 168 [1], partner 1 µg/mL	–	–	0.76	0.698
B. subtilis 168 [1], partner 2 µg/mL	–	–	0.795	0.788
S. pneumoniae D39V [2], partner 1 µg/mL	0.731	0.674	0.323	–
S. pneumoniae D39V [2], partner 2 µg/mL	0.761	0.688	0.346	–
S. pneumoniae D39V [2], partner 4 µg/mL	0.724	0.621	0.308	–

Conditions	Bliss interaction score
B. subtilis 168 [4]	-0.0615
S. aureus DSM 20231 [6]	-0.0797
S. aureus Newman	0.0671
S. pneumoniae D39V [5]	-0.128

CCC[C@@H]1C[C@@H](C(=O)N[C@@H]([C@H]2O[C@H](SC)[C@H](O)[C@@H](O)[C@H]2O)[C@@H](C)O)N(C)C1 [Lincomycin] + Cc1ncc([N+](=O)[O-])n1CCO [Metronidazole]
Conditions	fitness
B. subtilis 168 [1], first compound 0.1 µg/mL, partner 0.625 µg/mL	0.971
B. subtilis 168 [1], first compound 0.1 µg/mL, partner 1.25 µg/mL	0.93
B. subtilis 168 [1], first compound 0.1 µg/mL, partner 2.5 µg/mL	0.887
B. subtilis 168 [1], first compound 0.2 µg/mL, partner 0.625 µg/mL	0.928
B. subtilis 168 [1], first compound 0.2 µg/mL, partner 1.25 µg/mL	0.9
B. subtilis 168 [1], first compound 0.2 µg/mL, partner 2.5 µg/mL	0.876
B. subtilis 168 [1], first compound 0.4 µg/mL, partner 0.625 µg/mL	0.991
B. subtilis 168 [1], first compound 0.4 µg/mL, partner 1.25 µg/mL	0.894
B. subtilis 168 [1], first compound 0.4 µg/mL, partner 2.5 µg/mL	0.933
S. aureus DSM 20231 [3], first compound 0.1 µg/mL, partner 0.625 µg/mL	0.884
S. aureus DSM 20231 [3], first compound 0.1 µg/mL, partner 1.25 µg/mL	0.953
S. aureus DSM 20231 [3], first compound 0.1 µg/mL, partner 2.5 µg/mL	≥ 1
S. aureus DSM 20231 [3], first compound 0.2 µg/mL, partner 0.625 µg/mL	0.812
S. aureus DSM 20231 [3], first compound 0.2 µg/mL, partner 1.25 µg/mL	0.853
S. aureus DSM 20231 [3], first compound 0.2 µg/mL, partner 2.5 µg/mL	0.866
S. pneumoniae D39V [2], first compound 0.2 µg/mL, partner 1.073 µg/mL	0.752
S. pneumoniae D39V [2], first compound 0.2 µg/mL, partner 2.145 µg/mL	0.681
S. pneumoniae D39V [2], first compound 0.2 µg/mL, partner 4.29 µg/mL	0.659
S. pneumoniae D39V [2], first compound 0.215 µg/mL, partner 1.25 µg/mL	0.874
S. pneumoniae D39V [2], first compound 0.215 µg/mL, partner 2.5 µg/mL	0.87
S. pneumoniae D39V [2], first compound 0.215 µg/mL, partner 5 µg/mL	0.844
S. pneumoniae D39V [2], first compound 0.4 µg/mL, partner 1.073 µg/mL	0.68
S. pneumoniae D39V [2], first compound 0.4 µg/mL, partner 2.145 µg/mL	0.654
S. pneumoniae D39V [2], first compound 0.4 µg/mL, partner 4.29 µg/mL	0.647
S. pneumoniae D39V [2], first compound 0.43 µg/mL, partner 1.25 µg/mL	0.765
S. pneumoniae D39V [2], first compound 0.43 µg/mL, partner 2.5 µg/mL	0.761
S. pneumoniae D39V [2], first compound 0.43 µg/mL, partner 5 µg/mL	0.738
S. pneumoniae D39V [2], first compound 0.8 µg/mL, partner 1.073 µg/mL	0.502
S. pneumoniae D39V [2], first compound 0.8 µg/mL, partner 2.145 µg/mL	0.435
S. pneumoniae D39V [2], first compound 0.8 µg/mL, partner 4.29 µg/mL	0.428
S. pneumoniae D39V [2], first compound 0.86 µg/mL, partner 1.25 µg/mL	0.579
S. pneumoniae D39V [2], first compound 0.86 µg/mL, partner 2.5 µg/mL	0.578
S. pneumoniae D39V [2], first compound 0.86 µg/mL, partner 5 µg/mL	0.557

Conditions	Bliss interaction score
B. subtilis 168 [4]	-0.0532
S. aureus DSM 20231 [6]	0.0836
S. aureus Newman	0.073
S. pneumoniae D39V [5]	0.138

CCC[C@@H]1C[C@@H](C(=O)N[C@@H]([C@H]2O[C@H](SC)[C@H](O)[C@@H](O)[C@H]2O)[C@@H](C)O)N(C)C1 [Lincomycin] + Cc1onc(-c2ccccc2)c1C(=O)N[C@@H]1C(=O)N2[C@@H]1SC(C)(C)[C@@H]2C(=O)O [Oxacillin]
fitness
Conditions	first compound 0.1 µg/mL	first compound 0.2 µg/mL	first compound 0.215 µg/mL	first compound 0.4 µg/mL	first compound 0.43 µg/mL	first compound 0.8 µg/mL	first compound 0.86 µg/mL
B. subtilis 168 [1], partner 0.002 µg/mL	0.911	0.939	–	0.913	–	–	–
B. subtilis 168 [1], partner 0.004 µg/mL	0.881	0.923	–	0.926	–	–	–
B. subtilis 168 [1], partner 0.008 µg/mL	0.891	0.877	–	0.83	–	–	–
S. aureus DSM 20231 [3], partner 0.0156 µg/mL	0.785	0.78	–	0.291	–	–	–
S. aureus DSM 20231 [3], partner 0.0312 µg/mL	0.655	0.682	–	0.259	–	–	–
S. aureus DSM 20231 [3], partner 0.0625 µg/mL	0.491	0.515	–	0.173	–	–	–
S. pneumoniae D39V [2], partner 0.01 µg/mL	–	0.765	0.927	0.63	0.762	–	0.507
S. pneumoniae D39V [2], partner 0.02 µg/mL	–	0.764	0.882	0.588	0.778	–	0.483
S. pneumoniae D39V [2], partner 0.04 µg/mL	–	0.509	0.787	0.403	0.716	0.139	0.404

fitness, B. subtilis 168 [1], one replicate
Conditions	partner 0.0078 µg/mL	partner 0.0155 µg/mL	partner 0.031 µg/mL	partner 0.075 µg/mL	partner 0.15 µg/mL	partner 0.3 µg/mL
first compound 0.1 µg/mL	≥ 1	≥ 1	≥ 1	–	–	–
first compound 0.2 µg/mL	≥ 1	≥ 1	0.889	–	–	–
first compound 0.4 µg/mL	≥ 1	≥ 1	0.934	0.183	0.0398	0.0489
first compound 0.8 µg/mL	–	–	–	0.403	0.0361	0.0601
first compound 1.6 µg/mL	–	–	–	0.261	0.0594	0.0563

Conditions	Bliss interaction score
B. subtilis 168 [4]	-0.0676
S. aureus DSM 20231 [6]	0.119
S. aureus Newman	0.137
S. pneumoniae D39V [5]	0.189
